Assays:
Format in all cases: cell-based, human
[1] = test system: primary keratinocytes; assay: Morphology and propidium iodide staining after 5-day stimulation, primary keratinocytes; settings: 5-day incubation with 500 μM
Method: (§1) In order to obtain initial data on possible physiological effects caused by the activation of OR2AT4, HaCaT cells and primary keratinocytes were stimulated for five days with Sandalore®. […] A lethal effect of the odorant can therefore be ruled out (FIG. 16a).
(§2) Effect of Sandalore® long-term stimulation on morphology, growth, and migration processes in keratinocytes. A) Phase contrast image and PI stains of HaCaT cells and primary keratinocytes after stimulation with Sandalore® (500 μM) or 0.1% DMSO (control) for five days. On positive PI staining, the cell nuclei are stained red. Scale: 100 μm. B) Evaluation of the proliferation assay carried out with the CyQuant Cell Proliferation Kit on HaCaT cells after 5-day stimulation with 500 μM of Sandalore® or 0.1% DMSO (control). For the RNA interference experiments, the cells were transfected with siRNA or scRNA on the day before Sandalore® stimulation. Shown is the mean cell count including standard error relative to untreated cells. Mann-Whitney U test; n=3 experiments. *: p<0.05; **: p<0.01. S: Sandalore. C) Agarose assay for determination of migration of HaCaT cells. Top: Transmitted light images of HaCaT cells that have migrated in the direction of Sandalore® (500 μM) or 0.1% DMSO. […] The longest path traversed by the cells and the overgrown area were measured and compared to the control (0.1% DMSO). […]

[2] = test system: HaCaT cells; assay: Morphology and propidium iodide staining after 5-day stimulation, HaCaT cells; settings: 5-day incubation with 500 μM
Method: as §1, §2

[3] = test system: IL-8; assay: ELISA of secreted IL-8 in supernatant of HaCaT cells; settings: 24-hour stimulation, 500 μM
Method: In order to investigate interleukin secretion, quantitative real-time PCR was first carried out. For this purpose, RNA from HaCaT cells was used that had previously been stimulated for 6 or 24 hours with Sandalore®. Detection was carried out with specific primers of various interleukins (IL-1α, IL-1β, IL-6, IL-8) and tumor necrosis factor (TNF▪). […] In order to corroborate the results, an ELISA assay was carried out, in which the secreted interleukins in the supernatant of the cells can be detected by means of an immunological reaction. By means of the assay used, secretion of the interleukins (IL-1α, IL-1β, IL-2, IL-4, IL-6, IL-8, IL-10, IL-12, and IL-17α), TNFα, γ-interferon (IFNγ), and granulocyte macrophage colony-stimulating factor (GMCSF) was investigated.
Investigation of interleukin secretion and phosphorylation of Akt protein kinase after Sandalore® stimulation. A) Investigation of the regulation of interleukins in HaCaT cells by means of qRT-PCR after stimulation with Sandalore® (500 μM) for 6 h and 24 h. 0.1% DMSO was used as a control. GAPDH was used as a reference gene, and the relative expression between untreated and stimulated cells was determined. Mean values including standard error. n=3 experiments. […] The measured optical density of the treated cells at 450 nm was expressed relative to the background. […]

## CC1=CCC(CCC(C)C(C)O)C1(C)C (stereo not drawn) [Sandalore®]
[1]
  morphological changes or PI staining (lethal effect): neither the HaCaT cells nor the keratinocytes showed morphological changes or PI staining
[2]
  morphological changes or PI staining (lethal effect): neither the HaCaT cells nor the keratinocytes showed morphological changes or PI staining
[3]
  secretion of IL-8 relative to the control (0.1% DMSO): not significantly higher than the control

Source: patent publication US10835500B2, “Medicament for accelerated wound healing” (Symrise AG, priority 2014, dated 2020)
